Measurements as given in article PMC12162962, “The inhibitory potential of three scorpion venom peptides against multidrug-resistant Klebsiella pnemoniae” (Frontiers in Microbiology, 2025).
No end group written: not given here.

Tests used:
K. pneumoniae = assay: microbe, parasite or virus in culture; type: cell-based, Klebsiella pneumoniae
Procedure: To assess the combined effect of peptides and antibiotics, a checkerboard test was performed. An inoculum of K. pneumoniae at 2 × 10^5 CFU/mL was used for the assay. Serial dilutions of peptides and meropenem were executed, and 10 μL of peptide and antibiotic were added into the 96-well plate, individually and/or in combination. The plate was incubated for 24 h to 37°C and the combinatorial effect was calculated as an index of fractional inhibitory concentration (FICI) with the following formula ([Giugliano et al., 2023]).
FICI=MICmeropenem in combination/MICmeropenem+MICpeptide in combination/MICpeptide
• FICI ≤ 0.5, synergy. • 0.5 < FICI ≤ 1.0, partial synergy. • […], no interaction. • FICI > 4.0, antagonism.

S. thyphimurium = assay: Broth microdilution MIC/MBC; type: cell-based; conditions: for MIC: broth microdilution, 1 × 10^5 CFU/mL, concentration inhibiting 95% bacterial growth, triplicate; for MBC: lowest concentration killing 99.9% of the bacterial load after 18 h at 37°C on MHA
K. pneumoniae ATCC 10031 = assay: Broth microdilution MIC/MBC; type: cell-based, Klebsiella pneumoniae; conditions: reference strain ATCC 10031; for MIC: broth microdilution, 1 × 10^5 CFU/mL, concentration inhibiting 95% bacterial growth, triplicate; for MBC: lowest concentration killing 99.9% of the bacterial load after 18 h at 37°C on MHA
Procedure: (§1) Antibacterial activity of peptides was conducted against a panel of bacterial strains both Gram-positive (Staphylococcus aureus ATCC 6538, Enterococcus faecalis ATCC 29212, Listeria monocytogenes MB 677), and Gram-negative (E. coli ATCC 11229, K. pneumoniae ATCC 10031, Pseudomonas aeruginosa O1, Burkordelia cepacea LGM16656). The analysis has been extended to clinical isolates of K. pneumoniae carbapenemases producers isolated and characterized at the Microbiology Laboratory of the University Hospital “Luigi Vanvitelli,” Naples, Italy, using a BD Phoenix M50 instrument (Becton, Dickinson and Company, Franklin Lakes, NJ, USA) and listed in Table 1. The test was carried out as reported elsewhere ([Folliero et al., 2022]). The final bacterial concentration inoculated in the 96-well plate was 1 × 10^5 CFU/mL. Vancomycin (5 μg/mL) and meropenem (10 μg/mL) (Burlington, MA, USA) were used as positive control (CTRL+) against Gram-positive and Gram-negative bacteria, respectively.
(§2) The concentration of peptides inhibiting 95% bacterial growth was recorded as MIC. After setting the MIC value, 50 μL were taken from the 2MIC, 1MIC, and ½ MIC and spotted on MHA. The plates were incubated for 18 h at 37°C. The number of colony-forming units was calculated, and MBC was recorded as the lowest concentration of peptide capable of killing 99.9% of the bacterial load after 18 h of incubation.

[1] = system: Burkordelia cepacea LGM16656 (B. cepacia); assay: Broth microdilution MIC/MBC; type: cell-based; conditions: for MIC: broth microdilution, 1 × 10^5 CFU/mL, concentration inhibiting 95% bacterial growth, triplicate
Procedure: as §1, §2

E. coli ATCC 11229 = assay: Broth microdilution MIC/MBC; type: cell-based; conditions: for MIC: broth microdilution, 1 × 10^5 CFU/mL, concentration inhibiting 95% bacterial growth, triplicate; for MBC: lowest concentration killing 99.9% of the bacterial load after 18 h at 37°C on MHA
Procedure: as §1, §2

[2] = system: Enterococcus faecalis ATCC 29212; assay: Broth microdilution MIC/MBC; type: cell-based; conditions: for MIC: broth microdilution, 1 × 10^5 CFU/mL, concentration inhibiting 95% bacterial growth, triplicate; for MBC: lowest concentration killing 99.9% of the bacterial load after 18 h at 37°C on MHA
Procedure: as §1, §2

[3] = system: Listeria monocytogenes MB 677; assay: Broth microdilution MIC/MBC; type: cell-based; conditions: for MIC: broth microdilution, 1 × 10^5 CFU/mL, concentration inhibiting 95% bacterial growth, triplicate; for MBC: lowest concentration killing 99.9% of the bacterial load after 18 h at 37°C on MHA
Procedure: as §1, §2

[4] = system: Pseudomonas aeruginosa O1; assay: Broth microdilution MIC/MBC; type: cell-based; conditions: 1 × 10^5 CFU/mL, concentration inhibiting 95% bacterial growth, triplicate
Procedure: as §1, §2

[5] = system: Staphylococcus aureus ATCC 6538; assay: Broth microdilution MIC/MBC; type: cell-based; conditions: for MIC: broth microdilution, 1 × 10^5 CFU/mL, concentration inhibiting 95% bacterial growth, triplicate; for MBC: lowest concentration killing 99.9% of the bacterial load after 18 h at 37°C on MHA
Procedure: as §1, §2

[6] = system: K. pneumoniae 1746 (VIM, class B); assay: Broth microdilution MIC/MBC, clinical isolate; type: cell-based, Klebsiella pneumoniae; conditions: clinical isolate 1746, VIM; for MIC: rectal swab, broth microdilution, 95% growth inhibition
Procedure: as §1, §2

[7] = Stability of peptides in serum; type: in vitro ADME; conditions: 2.0 mg/mL peptide, 37°C; for remaining at 16 h, 2 mg/mL: RP-HPLC peak area vs t0 (100%), mean of duplicates, read-out: Peptide remaining in solution after 16 h in serum
Procedure: Peptide stability in serum was performed as previously reported ([Russo et al., 2021]). Briefly, peptides were diluted in serum to a final concentration of 2.0 mg/mL and incubated at 37°C. Aliquots of each peptide taken at different times up to 16 h were analyzed by RP-HPLC on an Aeris PEPTIDE XB-C18 column (2.1 × 100 mm, 3.6 μm). Peptide concentrations in solution were determined from RP-HPLC peak areas compared to peak areas obtained at t0 (set as 100%).

[8] = system: HaCaT cell line (human keratinocytes cells); assay: MTT cytotoxicity on HaCaT cells; type: cell-based; conditions: 100 μM, 24 h
Procedure: Peptides cytotoxicity was evaluated on the HaCaT cell line (human keratinocytes cells) obtained from the CLS–Cell Lines Service (Eppelheim, Germany). The cell monolayer was treated with different peptide concentrations from 3 to 100 μM for 24 h. Then, methylthiazolyldiphenyl-tetrazolium bromide (MTT) (Sigma-Aldrich, St. Louis, MO, USA) assay was performed as already reported ([Ambrosino et al., 2023]). Untreated cells represented positive control (CTRL+), while cells treated with 100% DMSO represented negative control (CTRL−). Absorbance was recorded at 570 nm, and cell viability was calculated with Equation 1:
(1) %ofcellviability=absorbanceoftreatedcells/absorbanceofuntreatedcellsx100

[9] = system: K. pneumoniae 1711 (KPC, class A); assay: Broth microdilution MIC/MBC, clinical isolate; type: cell-based, Klebsiella pneumoniae; conditions: clinical isolate 1711, KPC; for MIC: rectal swab, broth microdilution, 95% growth inhibition
Procedure: as §1, §2

[10] = system: K. pneumoniae 1745 (KPC, class A); assay: Broth microdilution MIC/MBC, clinical isolate; type: cell-based, Klebsiella pneumoniae; conditions: clinical isolate 1745, KPC; for MIC: ulcer, broth microdilution, 95% growth inhibition; for MBC: killing 99.9% after 18 h
Procedure: as §1, §2

[11] = system: K. pneumoniae 311 (OXA-48, class D); assay: Broth microdilution MIC/MBC, clinical isolate; type: cell-based, Klebsiella pneumoniae
Procedure: as §1, §2

[12] = system: several strains of K. pneumoniae KPC-producers; assay: MIC/MBC summarised over the clinical isolates; type: cell-based, Klebsiella pneumoniae; conditions: summary over strains 311, 1746, 1745, 1711
Procedure: as §1, §2

Molecule | MIC (S. thyphimurium) | MIC (K. pneumoniae ATCC 10031) | MIC [1] | MIC (E. coli ATCC 11229) | MIC [2] | MBC [2] | MIC [3] | MIC [4] | MIC [5] | MIC [6] | remaining at 16 h, 2 mg/mL [7] | Cell viability [8] | MBC (S. thyphimurium) | MBC (K. pneumoniae ATCC 10031) | MBC (E. coli ATCC 11229) | MBC [3] | MBC [5] | MIC [9] | MIC [10] | MBC [10] | further results
C[C@@H](O)[C@H]1C(=O)N2C(C(=O)O)=C(S[C@@H]3CN[C@H](C(=O)N(C)C)C3)[C@H](C)[C@H]12 [meropenem] | – | – | – | – | – | – | – | – | – | – | – | – | – | – | – | – | – | – | – | – | MIC (K. pneumoniae; Klebsiella pneumoniae, checkerboard, 2 × 10^5 CFU/mL, 24 h, 37°C, read-out: MIC of meropenem alone): 5 µg/mL; MIC of meropenem in combination (K. pneumoniae; combined with 3 μM of pantinin 1, checkerboard, 24 h, 37°C): 0.62 µg/mL
FLSTIWNGIKSLL-NH2 [Pantinin 3] | 50 µM | 25 µM | 50 µM | 50 µM | 25 µM | 25 µM | 25 µM | 50 µM | 12.5 µM | 50 µM | ~80% | 10% | – | – | – | – | – | – | – | – | –
GILGKLWEGFKSIV-NH2 [Pantinin 1] | 50 µM | 6.25 µM | 25 µM | 12.5 µM | 12.5 µM | 25 µM | 6.25 µM | 50 µM | 6.25 µM | 25 µM | – | approximately 70% | 50 µM | 12.5 µM | 25 µM | 12.5 µM | 6.25 µM | 25 µM | 25 µM | 25 µM | MBC ([1]; lowest concentration killing 99.9% of the bacterial load after 18 h at 37°C on MHA): 25 µM; MBC ([9]; killing 99.9% after 18 h): 25 µM; MIC ([11]; clinical isolate 311, OXA-48, rectal swab, broth microdilution, 95% growth inhibition): 25 µM; MBC ([11]; clinical isolate 311, OXA-48, killing 99.9% after 18 h): 25 µM; MIC against the tested clinical K. pneumoniae strains [12]: 25 µM; Stability in serum in the time interval analysed ([7]; up to 16 h, RP-HPLC peak area vs t0, duplicates): stable; FICI (K. pneumoniae; pantinin 1 (3 μM) with meropenem (0.62 μg/mL)): 0.624
IFGAIWKGISSLL-NH2 [Pantinin 2] | 50 µM | 12.5 µM | 50 µM | 25 µM | 12.5 µM | 12.5 µM | 6.25 µM | 50 µM | 12.5 µM | 25 µM | ~70% | 25% | 50 µM | 12.5 µM | 25 µM | 12.5 µM | 12.5 µM | 50 µM | 50 µM | 50 µM | MBC ([6]; killing 99.9% after 18 h): 50 µM
